What was measured:
[1] = tested on: complex between Hsp90 and mutant p53; experiment: Preclinical study of Hsp90 inhibition by ganetespib in mutant p53 cells; assay type: cell-based
[2] = tested on: triple-negative breast cancer; experiment: Phase 3 study of ganetespib in combination with docetaxel; assay type: in vivo, patients; settings: ganetespib 150 mg/m^2 in combination with docetaxel 75 mg/m^2
Excerpt: This is an open-label, multicenter, randomized Phase 3 study of patients with triple-negative breast cancer (TNBC). Eligible patients are previously untreated for their advanced or metastatic disease and have measurable disease as defined by Response Evaluation Criteria in Solid Tumors (RECIST). Patients are randomized in a 1:1 ratio to receive either ganetespib in combination with docetaxel or docetaxel alone. The study compares the efficacy and tolerability of ganetespib in combination with docetaxel versus docetaxel alone.
The study enrolls approximately 300 patients over a planned 30-month period, and patients are randomized into one of two treatment arms:
Arm A (combination arm): Ganetespib 150 mg/m^2 in combination with docetaxel 75 mg/m^2. On Day 1 of each 3-week treatment cycle, ganetespib and docetaxel are administered as separate 1-hour intravenous infusions. Administration of ganetespib precedes the administration of docetaxel. There is a 1-hour “rest” period following the end of the ganetespib infusion prior to docetaxel infusion. Ganetespib 150 mg/m^2 is administered again on Day 15 of each cycle […]
Clinical and laboratory parameters are assessed to evaluate disease status and toxicity in all patients. […] The post-dose ECG is recorded within approximately 60 minutes after the end of the ganetespib infusion or as soon as feasible. […]

[3] = tested on: non-small cell lung cancer; experiment: Phase I study of ganetespib with cisplatin/pemetrexed, carboplatin/pemetrexed or carboplatin/paclitaxel; assay type: in vivo, patients; settings: combination with cisplatin/pemetrexed
Excerpt: This is a Phase 1, open-label, dose-escalation study in patients with advanced NSCLC with adenocarcinoma histology.
Cohort 1: patients treated with ganetespib, cisplatin and pemetrexed
Cohort 2: patients treated with ganetespib, carboplatin and pemetrexed
Cohort 3: patients treated with ganetespib, carboplatin and paclitaxel
In Cohort 1, one treatment cycle consists of treatment with ganetespib, cisplatin and pemetrexed on Day 1, and ganetespib on Day 15
In Cohort 2, one treatment cycle consists of treatment with ganetespib, carboplatin and pemetrexed on Day 1, and ganetespib on Day 15
In Cohort 3, one treatment cycle consists of treatment with ganetespib, carboplatin and paclitaxel on Day 1, and ganetespib on Day 15
Treatment cycles are repeated every 3 weeks. The total planned number of combination cycles is 4. Ganetespib is administered on Days 1 and 15 of each cycle; cisplatin and pemetrexed, carboplatin and pemetrexed, or carboplatin and paclitaxel are administered on Day 1 of each cycle. Each agent is administered as a separate infusion (see Dose-Escalation Table below). […]
Duration of treatment: the duration of the combination treatment for each regimen is 4 treatment cycles, if tolerated. Patients who complete 4 combination-treatment cycles are evaluated for tumor disease response, general performance status and toxicities. […]

Compound: CC(C)c1cc(-c2n[nH]c(=O)n2-c2ccc3c(ccn3C)c2)c(O)cc1O [ganetespib]
- anti-cancer activity [1]: potent anti-cancer activity
- anti-cancer activity in cells with mutant p53 compared with other cells [1]: substantially stronger in cells with mutant p53
- effect on complex between Hsp90 and mutant p53 [1]: destroyed the complex between Hsp90 and mutant p53
- effect on mutant p53 protein [1]: inducing the degradation of mutant p53
- sensitization of mutant p53 cancer cells to treatment with chemotherapies ([1]; inhibition of Hsp90): strongly sensitize
- efficacy [2]: efficacious
- safety profile [2]: good safety profile
- efficacy [3]: efficacious
- safety profile [3]: good safety profile

From US20160120848A1, “SPECIFIC CANCER TREATMENT REGIMES WITH GANETESPIB” (SYNTA PHARMACEUTICALS CORP., priority 2013, published 2016)
